Data reported in paper PMC10318822, “Phase 1 dose-escalation study to evaluate the safety, tolerability, pharmacokinetics, and anti-tumor activity of FCN-159 in adults with neurofibromatosis type 1-related unresectable plexiform neurofibromas” (BMC Medicine, 2023).
Where “and” joins values, the source holds several entries; their conditions need not be identical. Equal values may be shown once.

System: adult patients with NF1-related PN
Assay: Phase I dose-escalation: DLT, MTD, RP2D and drug-related TEAEs (CTCAE v5.0)
Experimental: This is a multicenter, open-label, single-arm, non-randomized, phase I dose-escalation trial to evaluate the safety, tolerability, pharmacokinetic (PK), and anti-tumor activity of orally administered FCN-159 in adult patients with NF1 (NCT04954001). Phase I commenced with dose escalation in adult patients following a standard 3 + 3 design (Supplementary Table S1) to determine the maximum tolerated dose (MTD) of FCN-159 administered daily under fasting conditions (defined as no food or drink 1 h before and 2 h after each dose) in 28-day cycles. Study drug was dispensed at the study site and patient adherence was monitored by the records of drug dispensation and return. Patients were on treatment until PD, death, patient's voluntary withdrawal from study treatment, or study termination. The study was followed for 2 years after the last patient in. The starting dose was 4 mg, escalating in cohorts of at least three evaluable patients at 6 mg, 8 mg, and 12 mg until the MTD was determined. The starting dose in this study was determined based on available data from a phase 1a, first-in-human study of FCN-159 in patients with advanced NRAS ^mut+ melanoma at the time of study design. […] Dose expansion at a likely RP2D level enrolled approximately six patients. The highest dose level with a dose-limiting toxicity (DLT) incidence rate ≤ 33% (0/3 or 1/6 patients) was to be considered the MTD. If patients experienced grade ≥ 3 and/or unacceptable toxic events that were considered as at least possibly related to the study treatment, the study treatment was discontinued and supportive treatment was given in accordance with local treatment routines. If the toxicity returned to grade ≤ 2 within 28 days after the occurrence, and there was no progression on patients’ conditions or the investigator believed that patients could benefit from the study treatment, the original dose could be maintained or reduced after discussion with medical monitor. After completion of the dose escalation part of the study, PK, efficacy, safety, and tolerability data were analyzed to select the RP2D.
Primary endpoints of the study were the DLT incidence rate, MTD, and RP2D. Secondary endpoints included other safety assessments, imaging tumor response (complete response [CR], PR, stable disease [SD], or progressive disease [PD]), and PK parameters of FCN-159. Adverse events were graded per CTCAE v5.0.
All patients underwent a complete medical history, physical examination, Eastern Cooperative Oncology Group (ECOG) assessment, and laboratory analysis of test results. Drug-related TEAEs, serious adverse events (SAEs), TEAEs of grade ≥ 3 toxicity, and TEAEs leading to drug discontinuation were reviewed on an ongoing basis. Efficacy was assessed by radiologic scans and clinical assessment. Tumor assessments per Response Evaluation in Neurofibromatosis Schwannomatosis criteria were performed by investigators using MRI volumetric analysis every 4 cycles within the first 2 years (± 7 days) and every 6 cycles after 2 years (± 14 days) until PD, death, patient's voluntary withdrawal from study treatment, or study termination. MRI sequences of […], T1- and T2-weighted sequences were chosen and the software of Extended Brilliance Workspace, SIGNA Premier and uExceed were used for MRI volumetric analysis. The same software was used for all tumor assessments at baseline and subsequent assessed timepoints of the same patient. Pain was assessed by an 11-point numerical rating scale (NRS-11).
The sample size for the dose-escalation study was estimated to be 24 based on the 3 + 3 method. Safety was analyzed in patients who received at least one dose of FCN-159 and had at least one safety assessment. DLT was assessed in the DLT analysis set, defined as patients who were enrolled in the dose-escalation study and met the DLT evaluation criteria.

SMILES: Cn1c(=O)c(F)c(Nc2ccc(I)cc2F)c2c(=O)n(C3CC3)nc(-c3cccc(NS(=O)(=O)C4CC4)c3)c21 [FCN-159]
- Drug-related TEAE: Mouth ulceration (8 mg (N = 8)): 1 (12.5) n (%)
- Drug-related TEAE: Muscular weakness (8 mg (N = 8)): 1 (12.5) n (%)
- Drug-related TEAE: Oedema peripheral (8 mg (N = 8)): 0 n (%)
- Drug-related TEAE: Pain in extremity (8 mg (N = 8)): 0 n (%)
- Drug-related TEAE: Paronychia (8 mg (N = 8)): 3 (37.5) n (%)
- Drug-related TEAE: Prealbumin decreased (8 mg (N = 8)): 1 (12.5) n (%)
- Drug-related TEAE: Protein urine present (8 mg (N = 8)): 2 (25.0) n (%)
- Drug-related TEAE: Pruritus (8 mg (N = 8)): 1 (12.5) n (%)
- Drug-related TEAE: QRS axis abnormal (8 mg (N = 8)): 0 n (%)
- Drug-related TEAE: Rash (8 mg (N = 8)): 1 (12.5) n (%)
- Drug-related TEAE: Sinus arrhythmia (8 mg (N = 8)): 0 n (%)
- Drug-related TEAE: Sinus bradycardia (8 mg (N = 8)): 0 n (%)
- Drug-related TEAE: Sinusitis (8 mg (N = 8)): 0 n (%)
- Drug-related TEAE: Skin exfoliation (8 mg (N = 8)): 1 (12.5) n (%)
- Drug-related TEAE: Specific gravity urine increased (8 mg (N = 8)): 2 (25.0) n (%)
- Drug-related TEAE: Stomatitis (8 mg (N = 8)): 3 (37.5) n (%)
- Drug-related TEAE: Supraventricular extrasystoles (8 mg (N = 8)): 0 n (%)
- Drug-related TEAE: Total bile acids increased (8 mg (N = 8)): 0 n (%)
- Drug-related TEAE: Tricuspid valve incompetence (8 mg (N = 8)): 2 (25.0) n (%)
- Drug-related TEAE: Urinary occult blood positive (8 mg (N = 8)): 2 (25.0) n (%)
- Drug-related TEAE: Urinary sediment present (8 mg (N = 8)): 1 (12.5) n (%)
- Drug-related TEAE: Urinary tract infection (8 mg (N = 8)): 0 n (%)
- Drug-related TEAE: Urine ketone body present (8 mg (N = 8)): 2 (25.0) n (%)
- Drug-related TEAE: Urobilinogen urine increased (8 mg (N = 8)): 1 (12.5) n (%)
- Drug-related TEAE: Urticaria (8 mg (N = 8)): 0 n (%)
- Drug-related TEAE: Vision blurred (8 mg (N = 8)): 1 (12.5) n (%)
- Drug-related TEAE: Visual acuity reduced (8 mg (N = 8)): 0 n (%)
- Drug-related TEAE: pH urine decreased (8 mg (N = 8)): 2 (25.0) n (%)
- Drug-related TEAE: pH urine increased (8 mg (N = 8)): 1 (12.5) n (%)
- Subjects with any drug-related TEAE (8 mg (N = 8)): 8 (100) n (%)
- Patients with DLT (grade 3 folliculitis) (8 mg, 1 of 8 patients): 16.7% and 12.5%
- Subjects with grade 3 AEs (12 mg): four
- Drug-related TEAE: Abdominal pain (12 mg (N = 4)): 0 n (%)
- Drug-related TEAE: Acne (12 mg (N = 4)): 0 n (%)
- Drug-related TEAE: Acne pustular (12 mg (N = 4)): 0 n (%)
- Drug-related TEAE: Alanine aminotransferase increased (12 mg (N = 4)): 0 n (%)
- Drug-related TEAE: Albumin globulin ratio decreased (12 mg (N = 4)): 0 n (%)
- Drug-related TEAE: Alopecia (12 mg (N = 4)): 3 (75.0) n (%)
- Drug-related TEAE: Amylase increased (12 mg (N = 4)): 1 (25.0) n (%)
- Drug-related TEAE: Anemia (12 mg (N = 4)): 0 n (%)
- Drug-related TEAE: Aortic dilatation (12 mg (N = 4)): 0 n (%)
- Drug-related TEAE: Aspartate aminotransferase increased (12 mg (N = 4)): 0 n (%)
- Drug-related TEAE: Asthenia (12 mg (N = 4)): 0 n (%)
- Drug-related TEAE: Beta globulin decreased (12 mg (N = 4)): 0 n (%)
- Drug-related TEAE: Beta globulin increased (12 mg (N = 4)): 0 n (%)
- Drug-related TEAE: Blood alkaline phosphatase increased (12 mg (N = 4)): 2 (50.0) n (%)
- Drug-related TEAE: Blood bilirubin increased (12 mg (N = 4)): 0 n (%)
- Drug-related TEAE: Blood creatine phosphokinase increased (12 mg (N = 4)): 0 n (%)
- Drug-related TEAE: Blood fibrinogen increased (12 mg (N = 4)): 4 (100) n (%)
- Drug-related TEAE: Blood lactate dehydrogenase increased (12 mg (N = 4)): 1 (25.0) n (%)
- Drug-related TEAE: Blood pressure increased (12 mg (N = 4)): 1 (25.0) n (%)
- Drug-related TEAE: Blood urea increased (12 mg (N = 4)): 0 n (%)
- Drug-related TEAE: Blood uric acid increased (12 mg (N = 4)): 0 n (%)
- Drug-related TEAE: Breath odor (12 mg (N = 4)): 0 n (%)
- Drug-related TEAE: Capillary disorder (12 mg (N = 4)): 0 n (%)
- Drug-related TEAE: Constipation (12 mg (N = 4)): 2 (50.0) n (%)
- Drug-related TEAE: Decreased appetite (12 mg (N = 4)): 0 n (%)
- Drug-related TEAE: Dermatitis acneiform (12 mg (N = 4)): 0 n (%)
- Drug-related TEAE: Diarrhea (12 mg (N = 4)): 0 n (%)
- Drug-related TEAE: Drug eruption (12 mg (N = 4)): 0 n (%)
- Drug-related TEAE: Dyslipidemia (12 mg (N = 4)): 0 n (%)
- Drug-related TEAE: Ejection fraction decreased (12 mg (N = 4)): 0 n (%)
- Drug-related TEAE: Electrocardiogram QT prolonged (12 mg (N = 4)): 0 n (%)
- Drug-related TEAE: Electrocardiogram abnormal (12 mg (N = 4)): 2 (50.0) n (%)
- Drug-related TEAE: Epistaxis (12 mg (N = 4)): 0 n (%)
- Drug-related TEAE: Folliculitis (12 mg (N = 4)): 4 (100) n (%)
- Drug-related TEAE: Functional gastrointestinal disorder (12 mg (N = 4)): 0 n (%)
- Drug-related TEAE: Gamma-glutamyltransferase increased (12 mg (N = 4)): 0 n (%)
- Drug-related TEAE: Gingival pain (12 mg (N = 4)): 0 n (%)
- Drug-related TEAE: Hyperlipidemia (12 mg (N = 4)): 1 (25.0) n (%)
- Drug-related TEAE: Hypertension (12 mg (N = 4)): 0 n (%)
- Drug-related TEAE: Hypoalbuminemia (12 mg (N = 4)): 0 n (%)
- Drug-related TEAE: Hypocalcemia (12 mg (N = 4)): 0 n (%)
- Drug-related TEAE: Hypophosphatemia (12 mg (N = 4)): 0 n (%)
- Drug-related TEAE: Hypoproteinemia (12 mg (N = 4)): 0 n (%)
- Drug-related TEAE: Immunoglobulins increased (12 mg (N = 4)): 0 n (%)
- Drug-related TEAE: Impetigo (12 mg (N = 4)): 0 n (%)
- Drug-related TEAE: Left atrial enlargement (12 mg (N = 4)): 0 n (%)
- Drug-related TEAE: Lipoprotein abnormal (12 mg (N = 4)): 0 n (%)
- Drug-related TEAE: Malaise (12 mg (N = 4)): 0 n (%)
- Drug-related TEAE: Menstrual disorder (12 mg (N = 4)): 2 (50.0) n (%)
- Drug-related TEAE: Mitral valve incompetence (12 mg (N = 4)): 1 (25.0) n (%)
- Drug-related TEAE: Mouth ulceration (12 mg (N = 4)): 3 (75.0) n (%)
- Drug-related TEAE: Muscular weakness (12 mg (N = 4)): 0 n (%)
- Drug-related TEAE: Oedema peripheral (12 mg (N = 4)): 0 n (%)
- Drug-related TEAE: Pain in extremity (12 mg (N = 4)): 0 n (%)
- Drug-related TEAE: Paronychia (12 mg (N = 4)): 0 n (%)
- Drug-related TEAE: Prealbumin decreased (12 mg (N = 4)): 0 n (%)
- Drug-related TEAE: Protein urine present (12 mg (N = 4)): 0 n (%)
- Drug-related TEAE: Pruritus (12 mg (N = 4)): 0 n (%)
- Drug-related TEAE: QRS axis abnormal (12 mg (N = 4)): 3 (75.0) n (%)
- Drug-related TEAE: Rash (12 mg (N = 4)): 0 n (%)
- Drug-related TEAE: Sinus arrhythmia (12 mg (N = 4)): 0 n (%)
- Drug-related TEAE: Sinus bradycardia (12 mg (N = 4)): 0 n (%)
- Drug-related TEAE: Sinusitis (12 mg (N = 4)): 1 (25.0) n (%)
- Drug-related TEAE: Skin exfoliation (12 mg (N = 4)): 0 n (%)
- Drug-related TEAE: Specific gravity urine increased (12 mg (N = 4)): 0 n (%)
- Drug-related TEAE: Stomatitis (12 mg (N = 4)): 0 n (%)
- Drug-related TEAE: Supraventricular extrasystoles (12 mg (N = 4)): 0 n (%)
- Drug-related TEAE: Total bile acids increased (12 mg (N = 4)): 0 n (%)
- Drug-related TEAE: Tricuspid valve incompetence (12 mg (N = 4)): 0 n (%)
- Drug-related TEAE: Urinary occult blood positive (12 mg (N = 4)): 0 n (%)
- Drug-related TEAE: Urinary sediment present (12 mg (N = 4)): 0 n (%)
- Drug-related TEAE: Urinary tract infection (12 mg (N = 4)): 0 n (%)
- Drug-related TEAE: Urine ketone body present (12 mg (N = 4)): 0 n (%)
- Drug-related TEAE: Urobilinogen urine increased (12 mg (N = 4)): 0 n (%)
